{"source": "paper PMC8277899", "about": "“A novel RyR1-selective inhibitor prevents and rescues sudden death in mouse models of malignant hyperthermia and heat stroke” (Nature Communications, 2021)", "key": {"[1]": {"test": "Metabolic stability in mouse liver microsomes", "type": "in vitro ADME", "settings": "0.5 μM, NADPH", "procedure": "(§1) Cpd1 (final concentration was 0.5 μM) was incubated with human or mouse hepatic microsomes (XenoTech Ltd, Kansas City, KS) with nicotinamide adenine dinucleotide phosphate (NADPH) for 10 and 60 min at 37 °C. Each reaction was stopped by acetonitrile, and the value of unchanged compound 1 was determined by quantitating using LC–MS/MS, and the metabolic stability was evaluated as a remaining rate (%)."}, "[2]": {"system": "G2435R FDB fibers", "test": "Mn2+ quench assay in FDB fibers from G2435R mice", "type": "cell-based, mouse", "settings": "10 µM", "procedure": "(§2) WT and mutant mice (R2509C, 8- to 20-week old; R163C, 12- to 16-week old, and G2435R, 12- to 16-week old) were euthanized and flexor digitorum brevis (FDB) muscles were dissected and incubated with 2 mg/mL collagenase (Worthington Biochemical Co., NJ, USA) in the HEPES-Krebs solution containing 2 mg/mL bovine serum albumin for 2–3 h at 37 °C. Following incubation, single cells were separated by gentle trituration in collagenase-free HEPES-Krebs solution. Isolated single FDB cells were seeded on a laminin-coated cover slip of the 35 mm glass-bottom dish or on 96 well plate coated with Cultrex basement membrane matrix (Trevigen, Minneapolis, USA).\nAssays were carried out as follows[38]: 5 µM of fura2-AM dye (Thermo Fisher Scientific) dissolved in mammalian Ringer solution (133 mM NaCl, 5 mM KCl, 1 mM MgSO4, 25 mM HEPES, 5.5 mM glucose, 2 mM CaCl2, pH 7.4) was loaded into dissociated WT and homozygous G2435R FDB fibers in 96 well plates for 30 min at 37 °C, 5% CO2. […] Fura-2 was illuminated at its isosbestic wavelength (360 nm) with the X-Cite 120 metal halide light source (Exfo, Ontario, Canada) and fluorescence emission at 510 nm was recorded using a 10 ×0.3na objective. […] The fluorescence signals were plotted as fluorescence arbitrary units (f.a.u.) over time. […]"}, "[3]": {"system": "R2509C mice", "type": "in vivo, mouse", "settings": "for Survival 60 min after administration (survivors/total) / mice surviving 60 min after administration: rescue"}, "[4]": {"test": "Metabolic stability in human liver microsomes", "type": "in vitro ADME", "settings": "0.5 μM, NADPH", "procedure": "as §1"}, "[5]": {"system": "FDB muscle cells from WT mice", "test": "Ca2+ imaging (Cal520, fura-2) of isolated single FDB cells from WT mice", "type": "cell-based, mouse", "procedure": "as §2\nIsolated single FDB cells were incubated with 4 µM Cal520-AM (AAT Bioquest, CA, USA) or fura-2-AM (Thermo Fisher Scientific) dye in the HEPES-Krebs solution (140 mM NaCl, 5 mM KCl, 2 mM CaCl2, 1 mM MgCl2, 11 mM glucose, 5 mM HEPES, pH 7.4) for 30 min at 37 °C. The cells were then washed three times with the HEPES-Krebs solution to remove excess dye, and after 30 min of de-esterification, fluorescence images were obtained with a 20X (NA = 0.75) objective lens of an inverted microscope (Nikon TE2000-E Japan) equipped with the sCMOS camera (Zyla, Andor, Belfast, Northern Ireland) using Metamorph v7 (Molecular Devices). Cal520 was excited at 480 ± 15 nm, and fluorescence was measured at wavelengths of 525 ± 25 nm. […]"}, "[6]": {"settings": "preventive, 10 mg/kg i.p. 10 min before isoflurane, 10 mg/kg"}}, "note": "Several values for one entry are separate records, joined by “and”; a condition that tells them apart may be missing. Equal values may be shown once. Read-outs that look alike come from different tables or passages of the source."}
{"smiles": "CCCCCCCCn1cc(C(=O)O)c(=O)c2cc3c(cc21)OCO3", "note": "[Cpd1, 6,7-(methylenedioxy)-1-octyl-4-quinolone-3-carboxylic acid]", "values": [{"measurement": "remaining rate (residual Cpd1, 0 min = 100%)", "setting": "[1]; 10 min", "result": "23% and 26% and 28% and 19% and 18%"}, {"measurement": "remaining rate (residual Cpd1, 0 min = 100%)", "setting": "[1]; 60 min", "result": "3% and 2% and 4%"}, {"measurement": "Mn2+ quench rate", "setting": "[2]", "result": "the same as that in untreated WT fibers"}, {"measurement": "effect on rise in rectal temperature", "setting": "[3]; 1 mg/kg i.p. 8 times at 10 min intervals, isoflurane", "result": "successfully prevented rise in the rectal temperature"}, {"measurement": "Survival 90 min after isoflurane challenge (survivors/total)", "setting": "[3]; 1 mg/kg i.p. 8 times every 10 min", "result": "all the mice survived"}, {"measurement": "effect of second and third administrations on rectal temperature", "setting": "[3]; 3 mg/kg i.p. each time rectal temperature reached 39 °C, isoflurane", "result": "successfully decreased the rectal temperature"}, {"measurement": "effect on rise in rectal temperature", "setting": "[3]; preventive, 3 mg/kg i.p.", "result": "did not prevent rise in rectal temperature"}, {"measurement": "Survival after 90 min of anesthesia (survivors/total)", "setting": "[3]; preventive, 3 mg/kg i.p. 10 min before isoflurane, 3 mg/kg", "result": "1 out of 6"}, {"measurement": "Survival after 90 min of anesthesia (survivors/total)", "setting": "[3]; preventive, 3 mg/kg i.p. 10 min before isoflurane, listed as Cpd 1, 3 mg/kg", "result": "1/6"}, {"measurement": "Time to death", "setting": "[3]; preventive, 3 mg/kg i.p., n = 5", "result": "47 ± 15", "unit": "min"}, {"measurement": "effect on rise in rectal temperature", "setting": "[3]; preventive, 10 mg/kg i.p.", "result": "successfully prevented any rise in rectal temperature"}, {"measurement": "Maximum rectal temperature", "setting": "[3]; [6]", "result": "36.1797 °C and 35.7812 °C and 35.4844 °C and 36.3594 °C and 36.1344 °C and 36.1406 °C"}, {"measurement": "Survival after 90 min of anesthesia (survivors/total)", "setting": "[3]; [6]", "result": "All the treated mice survived"}, {"measurement": "Survival 60 min after administration (survivors/total)", "setting": "[3]; 3 mg/kg i.p. at 39 °C", "result": "6/10"}, {"measurement": "mice surviving 60 min after administration", "setting": "[3]; 3 mg/kg i.p. at 39 °C", "result": 60, "unit": "%"}, {"measurement": "Survival 60 min after administration (survivors/total)", "setting": "[3]; 10 mg/kg i.p. at 39 °C", "result": "8/8"}, {"measurement": "mice surviving 60 min after administration", "setting": "[3]; 10 mg/kg i.p. at 39 °C", "result": 100, "unit": "%"}, {"measurement": "remaining rate (residual Cpd1, 0 min = 100%)", "setting": "[4]; 10 min", "result": "69% and 68% and 65% and 66%"}, {"measurement": "remaining rate (residual Cpd1, 0 min = 100%)", "setting": "[4]; 60 min", "result": "25% and 26% and 23%"}, {"measurement": "effect on resting [Ca2+]i (fura-2)", "setting": "[5]; WT cells, 0.1 and 0.3 µM", "result": "no significant effect"}, {"measurement": "Ca2+ signal with Cpd1 relative to None = 1 (sheet Fig S1b)", "setting": "[5]; WT, single experiments", "result": "0.9888 and 0.981 and 0.9775 and 0.9827 and 0.9913"}]}
